Read-outs that look alike come from different tables or passages of the source.
Experiments:
[1] = tested on: LNCaP prostate cancer cell; experiment: LNCaP cell viability (CellTiter-Glo); format: cell-based; conditions: Homo sapiens, 72 h, LNCaP cell viability, 3 days, CellTiter-Glo
Method in brief: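 LNCaP cells (5000/well, RPMI 1640 + 10% FBS, 37 °C) treated with compounds in 12-point 3-fold serial dilution for three days. Viability read by CellTiter-Glo luminescence, normalized to untreated cells; IC50 from least-squares nonlinear regression.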

[2] = target: P300 (Homo sapiens, UniProt Q09472); experiment: percentage of inhibition (degradation) of p300 at 10 nM, Tables 2-4; format: cell-based; parameters: LNCaP or 22RV1 cells that express CBP/P300 proteins were treated with GNE-781 or the bivalent compounds; endogenous in cells; host or cells: LNCaP or 22RV1 (not given); conditions: for inhibition at 0.01 µM: read-out: Degradation (10 nM); for Degradation (10 nM): Table 3
Method in brief: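 Degradation was measured at 10 nM. Cells or tissue were lysed in RIPA with protease and phosphatase inhibitors for 30 min at 4 °C and cleared, and protein was quantified by BCA. Lysates were resolved by SDS-PAGE, detected by chemiluminescent immunoblot, and bands were quantified by densitometry.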

Sequence of P300 (Q09472 whole entry): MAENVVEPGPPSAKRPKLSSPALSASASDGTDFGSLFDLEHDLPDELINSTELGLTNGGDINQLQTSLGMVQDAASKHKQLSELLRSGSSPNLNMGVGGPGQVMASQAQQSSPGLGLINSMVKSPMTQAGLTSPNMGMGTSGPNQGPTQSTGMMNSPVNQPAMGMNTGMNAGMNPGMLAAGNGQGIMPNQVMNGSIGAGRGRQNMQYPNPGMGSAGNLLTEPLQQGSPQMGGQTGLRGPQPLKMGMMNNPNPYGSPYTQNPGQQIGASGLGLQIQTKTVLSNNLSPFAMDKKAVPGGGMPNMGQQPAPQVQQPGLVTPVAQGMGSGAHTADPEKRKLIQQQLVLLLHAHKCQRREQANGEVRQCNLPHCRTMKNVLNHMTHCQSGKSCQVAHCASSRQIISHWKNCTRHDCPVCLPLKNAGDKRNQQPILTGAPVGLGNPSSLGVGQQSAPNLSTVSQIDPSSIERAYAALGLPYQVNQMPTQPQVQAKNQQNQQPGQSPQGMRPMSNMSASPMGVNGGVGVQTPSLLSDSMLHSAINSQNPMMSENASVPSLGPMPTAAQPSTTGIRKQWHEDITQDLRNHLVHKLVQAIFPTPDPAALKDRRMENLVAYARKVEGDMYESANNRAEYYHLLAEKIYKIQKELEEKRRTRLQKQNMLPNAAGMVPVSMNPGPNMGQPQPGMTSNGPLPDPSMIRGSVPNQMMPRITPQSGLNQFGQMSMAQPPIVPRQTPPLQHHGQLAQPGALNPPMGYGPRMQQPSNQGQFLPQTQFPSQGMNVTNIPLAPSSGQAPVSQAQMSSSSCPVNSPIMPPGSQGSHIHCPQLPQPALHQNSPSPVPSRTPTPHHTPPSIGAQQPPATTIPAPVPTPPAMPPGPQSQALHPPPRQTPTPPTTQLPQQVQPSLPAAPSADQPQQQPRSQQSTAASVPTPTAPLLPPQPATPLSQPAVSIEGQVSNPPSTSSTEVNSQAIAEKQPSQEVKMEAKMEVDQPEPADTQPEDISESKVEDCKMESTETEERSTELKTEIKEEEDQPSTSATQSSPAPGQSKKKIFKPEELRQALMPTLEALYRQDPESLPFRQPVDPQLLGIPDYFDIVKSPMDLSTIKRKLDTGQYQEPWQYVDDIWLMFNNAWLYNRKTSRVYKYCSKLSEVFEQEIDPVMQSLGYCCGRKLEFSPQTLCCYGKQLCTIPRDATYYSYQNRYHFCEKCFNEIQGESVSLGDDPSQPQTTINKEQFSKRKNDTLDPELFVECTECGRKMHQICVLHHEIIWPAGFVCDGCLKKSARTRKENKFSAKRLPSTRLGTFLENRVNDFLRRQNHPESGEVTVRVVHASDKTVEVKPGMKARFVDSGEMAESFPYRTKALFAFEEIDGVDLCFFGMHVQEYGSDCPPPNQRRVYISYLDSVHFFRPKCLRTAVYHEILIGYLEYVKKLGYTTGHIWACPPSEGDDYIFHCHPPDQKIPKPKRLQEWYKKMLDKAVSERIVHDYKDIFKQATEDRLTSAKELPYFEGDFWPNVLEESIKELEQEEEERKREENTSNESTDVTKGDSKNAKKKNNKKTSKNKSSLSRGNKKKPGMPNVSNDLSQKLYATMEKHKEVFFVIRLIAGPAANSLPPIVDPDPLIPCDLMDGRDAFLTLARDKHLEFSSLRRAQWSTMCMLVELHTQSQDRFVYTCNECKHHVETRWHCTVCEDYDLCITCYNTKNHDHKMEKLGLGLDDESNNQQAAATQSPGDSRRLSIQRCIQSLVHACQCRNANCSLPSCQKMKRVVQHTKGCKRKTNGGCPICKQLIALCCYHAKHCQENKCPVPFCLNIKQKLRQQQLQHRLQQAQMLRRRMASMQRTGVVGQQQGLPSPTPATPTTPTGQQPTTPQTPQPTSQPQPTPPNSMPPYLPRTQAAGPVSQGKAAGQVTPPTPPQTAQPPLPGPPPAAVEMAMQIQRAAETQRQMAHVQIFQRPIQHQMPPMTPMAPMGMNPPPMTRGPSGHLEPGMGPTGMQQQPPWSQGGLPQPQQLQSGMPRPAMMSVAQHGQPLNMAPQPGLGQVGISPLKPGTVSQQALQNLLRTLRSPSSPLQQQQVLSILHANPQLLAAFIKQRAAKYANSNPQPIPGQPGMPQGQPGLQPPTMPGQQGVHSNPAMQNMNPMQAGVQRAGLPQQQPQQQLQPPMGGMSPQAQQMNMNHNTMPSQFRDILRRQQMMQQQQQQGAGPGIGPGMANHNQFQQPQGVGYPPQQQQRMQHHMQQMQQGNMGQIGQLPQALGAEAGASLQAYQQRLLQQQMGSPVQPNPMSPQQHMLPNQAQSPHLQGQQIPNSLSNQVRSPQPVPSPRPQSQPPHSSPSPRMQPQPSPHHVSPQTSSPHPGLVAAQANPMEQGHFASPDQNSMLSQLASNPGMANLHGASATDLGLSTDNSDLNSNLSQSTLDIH

Compound | IC50 ([1]; Table 4) | inhibition at 0.01 µM ([2]; p300, 10 nM, Table 4) | IC50 ([1]; Table 3) | Degradation (10 nM) ([2]; p300, 10 nM) | inhibition at 0.01 µM [2]
CC(=O)N1CCc2c(c(N3CCCc4cc(-c5cnn(C)c5)c(C(F)F)cc43)nn2C2CCN(C(=O)CCCCCn3c(=O)n(C4CCC(=O)NC4=O)c4ccccc43)CC2)C1 (centres unmarked) [P-107, 3-(3-(6-(4-(5-acetyl-3-(7-(difluoromethyl)-6-(1-methyl-1H-pyrazol-4-yl)-3,4-dihydroquinolin-1(2H)-yl)-4,5,6,7-tetrahydro-1H-pyrazolo[4,3-c]pyridin-1-yl)piperidin-1-yl)-6-oxohexyl)-2-oxo-2,3-dihydro-1H-benzo[d]imidazol-1-yl)piperidine-2,6-dione] | – | – | 20.4 nM | B (B: 50% ≤ Degradation < 80%) | –
CC(=O)N1CCc2c(c(N3CCCc4cc(-c5cnn(C)c5)c(C(F)F)cc43)nn2C2CCN(CCN3CCN(c4cccc5c4C(=O)N(C4CCC(=O)NC4=O)C5=O)CC3)CC2)C1 (centres unmarked) [P-191, 4-(4-(2-(4-(5-acetyl-3-(7-(difluoromethyl)-6-(1-methyl-1H-pyrazol-4-yl)-3,4-dihydroquinolin-1(2H)-yl)-4,5,6,7-tetrahydro-1H-pyrazolo[4,3-c]pyridin-1-yl)piperidin-1-yl)ethyl)piperazin-1-yl)-2-(2,6-dioxopiperidin-3-yl)isoindoline-1,3-dione] | 179 nM | < 20% | – | – | –
CC(=O)N1CCc2c(c(N3CCCc4cc(-c5cnn(C)c5)c(C(F)F)cc43)nn2C2CCN(CCN3CCC(CNc4cccc5c4C(=O)N(C4CCC(=O)NC4=O)C5=O)CC3)CC2)C1 (centres unmarked) [P-143, 4-(((1-(2-(4-(5-acetyl-3-(7-(difluoromethyl)-6-(1-methyl-1H-pyrazol-4-yl)-3,4-dihydroquinolin-1(2H)-yl)-4,5,6,7-tetrahydro-1H-pyrazolo[4,3-c]pyridin-1-yl)piperidin-1-yl)ethyl)piperidin-4-yl)methyl)amino)-2-(2,6-dioxopiperidin-3-yl)isoindoline-1,3-dione] | – | – | 1.5 nM | A (A: Degradation ≥ 80%) | –
CC(=O)N1CCc2c(c(N3CCCc4cc(-c5cnn(C)c5)c(C(F)F)cc43)nn2C2CCN(CCN3CCC(C4CN(c5cccc6c5C(=O)N(C5CCC(=O)NC5=O)C6=O)C4)CC3)CC2)C1 (centres unmarked) [P-187, 4-(3-(1-(2-(4-(5-acetyl-3-(7-(difluoromethyl)-6-(1-methyl-1H-pyrazol-4-yl)-3,4-dihydroquinolin-1(2H)-yl)-4,5,6,7-tetrahydro-1H-pyrazolo[4,3-c]pyridin-1-yl)piperidin-1-yl)ethyl)piperidin-4-yl)azetidin-1-yl)-2-(2,6-dioxopiperidin-3-yl)isoindoline-1,3-dione] | 2.3 nM | – | – | – | > 80%
CC(=O)N1CCc2c(c(N3CCCc4cc(-c5cnn(C)c5)c(C(F)F)cc43)nn2C2CCN(CCC3CCN(c4cccc5c4C(=O)N(C4CCC(=O)NC4=O)C5=O)CC3)CC2)C1 (centres unmarked) [P-192, 4-(4-(2-(4-(5-acetyl-3-(7-(difluoromethyl)-6-(1-methyl-1H-pyrazol-4-yl)-3,4-dihydroquinolin-1(2H)-yl)-4,5,6,7-tetrahydro-1H-pyrazolo[4,3-c]pyridin-1-yl)piperidin-1-yl)ethyl)piperidin-1-yl)-2-(2,6-dioxopiperidin-3-yl)isoindoline-1,3-dione] | 10.2 nM | 50 to 80% | – | – | –

Continued, in another order:

IC50 ([1]; Table 4) | inhibition at 0.01 µM ([2]; p300, 10 nM, Table 4) | Compound | IC50 ([1]; Table 3) | Degradation (10 nM) ([2]; p300, 10 nM) | inhibition at 0.01 µM [2]
3.1 nM | 50 to 80% | CC(=O)N1CCc2c(c(N3CCCc4cc(-c5cnn(C)c5)c(C(F)F)cc43)nn2C2CCN(Cc3cccc(COc4cccc5c4CN(C4CCC(=O)NC4=O)C5=O)c3)CC2)C1 (centres unmarked) [P-202, 3-(4-((3-((4-(5-acetyl-3-(7-(difluoromethyl)-6-(1-methyl-1H-pyrazol-4-yl)-3,4-dihydroquinolin-1(2H)-yl)-4,5,6,7-tetrahydro-1H-pyrazolo[4,3-c]pyridin-1-yl)piperidin-1-yl)methyl)benzyl)oxy)-1-oxoisoindolin-2-yl)piperidine-2,6-dione] | – | – | –
298 nM | 20 to 50% | CC(=O)N1CCc2c(c(N3CCCc4cc(-c5cnn(C)c5)c(C(F)F)cc43)nn2C2CCN(CCC3CCN(CCCc4cccc5c4C(=O)N(C4CCC(=O)NC4=O)C5=O)CC3)CC2)C1 (centres unmarked) [P-246, 4-(3-(4-(2-(4-(5-acetyl-3-(7-(difluoromethyl)-6-(1-methyl-1H-pyrazol-4-yl)-3,4-dihydroquinolin-1(2H)-yl)-4,5,6,7-tetrahydro-1H-pyrazolo[4,3-c]pyridin-1-yl)piperidin-1-yl)ethyl)piperidin-1-yl)propyl)-2-(2,6-dioxopiperidin-3-yl)isoindoline-1,3-dione] | – | – | –
486 nM | < 20% | CC(=O)N1CCc2c(c(N3CCCc4cc(-c5cnn(C)c5)c(C(F)F)cc43)nn2C2CCN(C(=O)CCCCCCCCC(=O)Nc3cccc(NC4CCC(=O)NC4=O)c3)CC2)C1 (centres unmarked) [P-264, 10-(4-(5-Acetyl-3-(7-(difluoromethyl)-6-(1-methyl-1H-pyrazol-4-yl)-3,4-dihydroquinolin-1(2H)-yl)-4,5,6,7-tetrahydro-1H-pyrazolo[4,3-c]pyridin-1-yl)piperidin-1-yl)-N-(3-((2,6-dioxopiperidin-3-yl)amino)phenyl)-10-oxodecanamide] | – | – | –
3.5 nM | > 80% | CC(=O)N1CCc2c(c(N3CCCc4cc(-c5cnn(C)c5)c(C(F)F)cc43)nn2C2CCN(C(=O)CCCN3CCC(C#Cc4ccc5c(c4)n(C)c(=O)n5C4CCC(=O)NC4=O)CC3)CC2)C1 (centres unmarked) [P-211, 3-(5-((1-(4-(4-(5-acetyl-3-(7-(difluoromethyl)-6-(1-methyl-1H-pyrazol-4-yl)-3,4-dihydroquinolin-1(2H)-yl)-4,5,6,7-tetrahydro-1H-pyrazolo[4,3-c]pyridin-1-yl)piperidin-1-yl)-4-oxobutyl)piperidin-4-yl)ethynyl)-3-methyl-2-oxo-2,3-dihydro-1H-benzo[d]imidazol-1-yl)piperidine-2,6-dione] | – | – | –
307 nM | 20 to 50% | CC(=O)N1CCc2c(c(N3CCCc4cc(-c5cnn(C)c5)c(C(F)F)cc43)nn2C2CCN(C(=O)CN3CCN(CCCc4cccc5c4n(C)c(=O)n5C4CCC(=O)NC4=O)CC3)CC2)C1 (centres unmarked) [P-237, 3-(4-(3-(4-(2-(4-(5-Acetyl-3-(7-(difluoromethyl)-6-(1-methyl-1H-pyrazol-4-yl)-3,4-dihydroquinolin-1(2H)-yl)-4,5,6,7-tetrahydro-1H-pyrazolo[4,3-c]pyridin-1-yl)piperidin-1-yl)-2-oxoethyl)piperazin-1-yl)propyl)-3-methyl-2-oxo-2,3-dihydro-1H-benzo[d]imidazol-1-yl)piperidine-2,6-dione] | – | – | –

Reference: patent US20240100170A1, “CYCLIC-AMP RESPONSE ELEMENT BINDING PROTEIN (CBP) AND/OR ADENOVIRAL E1A BINDING PROTEIN OF 300 KDA (P300) DEGRADATION COMPOUNDS AND METHODS OF USE” (CULLGEN (SHANGHAI), INC., priority 2020, published 2024)
